One assay concerns the target T1, human KDR (Homo sapiens, UniProt P35968).
T1 construct: expressed in transfected cells; host or cells: NIH 3T3 cells (mouse fibroblasts) stably expressing human KDR
Description: Inhibitory activity against KDR phosphorylation by ELISA (VEGF-stimulated NIH 3T3 cells expressing human KDR). The conditions noted are these: VEGF 100 ng/ml, compound 1 hr, read-out: IC50 (inhibition of KDR phosphorylation). Format: cell-based. Here is the method: The harvested cells were inoculated into wells of a collagen-type one-coat 96-well flat-bottom plate, each containing the same medium, in an amount of 1.5×10^4 per well, followed by cultivation at 37° C. overnight. The medium was then replaced by a DMEM medium containing 0.1% fetal calf serum. A solution of a test compound in dimethyl sulfoxide was added to each well, and the cultivation was continued at 37° C. for additional one hr. A human recombinant vascular endothelial growth factor (hereinafter abbreviated to “VEGF”) was added to a final concentration of 100 ng/ml, and the stimulation of cells was carried out at 37° C. for 2 min. The medium was removed, the cells were washed with phosphate buffered saline (pH 7.4), and 50 μl of a solubilization buffer (20 mM HEPES (pH 7.4), 150 mM NaCl, 0.2% Triton X-100, 10% glycerol, 5 mM sodium orthovanadylate, 5 mM disodium ethylenediaminetetraacetate, and 2 mM Na4P2O7) was then added thereto. The mixture was shaken at 4° C. for 2 hr to prepare a cell extract.
Separately, phosphate buffered saline (50 μl, pH 7.4) containing 5 μg/ml of an anti-phospho-tyrosine antibody (PY20; purchased from Transduction Laboratories) was added to a microplate for ELISA (Maxisorp; purchased from NUNC), followed by standing at 4° C. overnight to form a solid phase on the wells. After washing of the plate, 300 μl of a blocking solution was added, followed by standing at room temperature for 2 hr to perform blocking. After washing, the whole quantity of the cell extract was transferred to the wells, and the plate was then allowed to stand at 4° C. overnight. After washing, an anti-KDR antibody (purchased from Santa Cruz) was allowed to react at room temperature for one hr, and, after washing, a peroxidase-labeled anti-rabbit Ig antibody (purchased from Amersham) was allowed to react at room temperature for one hr. After washing, a chromophoric substrate for peroxidase (purchased from Sumitomo Bakelite Co., Ltd.) was added thereto to initiate a reaction. After a suitable level of color development, a reaction termination solution was added to stop the reaction, and the absorbance at 450 nm was measured with a microplate reader. The KDR phosphorylation activity for each well was determined by presuming the absorbance with the addition of VEGF and without the addition of the medicament to be 100% KDR phosphorylation activity and the absorbance without the addition of the medicament and VEGF to be 0% KDR phosphorylation activity.
In general terms: ELISA stands for enzyme-linked immunosorbent assay.

Assay [1] has as its system Human pulmonary carcinoma cells (LC-6). As to the kind of experiment: Antitumor activity against human pulmonary carcinoma cells (LC-6) transplanted into nude mice. The assay is classed as in vivo. Conditions: LC-6 in nude mice, oral 20 mg/kg once a day for 9 days; for inhibition in vivo at 20 mg/kg: Mus musculus, 216 h, read-out: TGIR (tumor growth inhibition rate). On the procedure:
Human pulmonary carcinoma cells (LC-6) (obtained from Central Laboratories for Experimental Animals) were transplanted into nude mice. When the tumor volume became about 100 mm^3, the mice were grouped so that each group consisted of four mice and the average tumor volume was even among the groups. A test compound was orally administered at a dose of 20 mg/kg to the test groups every day once a day for 9 days, while only a vehicle was administered to a control group in the manner as in the test groups. The tumor growth inhibition rate (TGIR) was calculated as follows: The tumor growth inhibition rate (TGIR)=(1−TX/CX)×100 wherein CX represents the volume of tumor at day X for the control group when the tumor volume at the first day of the administration was presumed to be 1; and TX represents the tumor volume for test compound administration groups.

The structures appear in SMILES notation. Structures can show the parent of a compound that is named as a salt.

The IC50 is the point on the concentration scale where inhibition reaches its midpoint.

T1 sequence (P35968 20-1356): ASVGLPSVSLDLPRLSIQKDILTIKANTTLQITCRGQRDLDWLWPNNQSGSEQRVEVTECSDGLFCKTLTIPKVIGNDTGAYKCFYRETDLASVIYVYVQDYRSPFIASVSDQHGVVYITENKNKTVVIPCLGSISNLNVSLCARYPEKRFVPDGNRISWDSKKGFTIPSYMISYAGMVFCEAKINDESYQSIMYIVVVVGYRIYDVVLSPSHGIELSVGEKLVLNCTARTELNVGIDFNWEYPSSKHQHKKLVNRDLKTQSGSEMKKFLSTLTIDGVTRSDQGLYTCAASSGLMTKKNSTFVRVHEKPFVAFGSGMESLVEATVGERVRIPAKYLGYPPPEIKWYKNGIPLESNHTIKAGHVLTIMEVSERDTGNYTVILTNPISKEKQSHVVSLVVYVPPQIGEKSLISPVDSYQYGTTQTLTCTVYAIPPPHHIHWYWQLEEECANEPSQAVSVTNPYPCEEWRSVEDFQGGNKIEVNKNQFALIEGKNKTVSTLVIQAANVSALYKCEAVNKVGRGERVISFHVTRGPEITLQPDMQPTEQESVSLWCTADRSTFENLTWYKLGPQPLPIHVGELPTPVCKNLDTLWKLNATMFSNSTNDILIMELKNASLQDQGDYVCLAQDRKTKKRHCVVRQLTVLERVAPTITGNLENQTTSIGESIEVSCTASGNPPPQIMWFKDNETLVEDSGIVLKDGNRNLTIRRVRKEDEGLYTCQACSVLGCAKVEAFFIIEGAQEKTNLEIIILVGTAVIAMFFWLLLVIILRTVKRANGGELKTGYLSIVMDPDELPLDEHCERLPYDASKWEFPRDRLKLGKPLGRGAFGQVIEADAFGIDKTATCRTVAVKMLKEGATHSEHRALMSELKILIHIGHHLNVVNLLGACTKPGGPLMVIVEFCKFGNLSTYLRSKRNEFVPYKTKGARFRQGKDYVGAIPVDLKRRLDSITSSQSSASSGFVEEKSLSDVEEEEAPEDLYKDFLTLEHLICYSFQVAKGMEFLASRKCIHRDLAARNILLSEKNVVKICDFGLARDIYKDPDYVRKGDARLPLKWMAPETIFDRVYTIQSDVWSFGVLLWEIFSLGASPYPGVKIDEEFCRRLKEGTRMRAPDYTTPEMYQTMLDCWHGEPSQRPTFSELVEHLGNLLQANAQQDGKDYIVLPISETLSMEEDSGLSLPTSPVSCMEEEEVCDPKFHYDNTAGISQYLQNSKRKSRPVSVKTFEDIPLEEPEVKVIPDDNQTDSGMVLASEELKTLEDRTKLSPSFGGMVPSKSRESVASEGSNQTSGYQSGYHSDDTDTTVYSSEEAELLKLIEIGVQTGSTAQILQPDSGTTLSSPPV

On to `COc1cc2ncnc(Oc3ccc(NC(=O)Nc4ncc(C)s4)c(Cl)c3)c2cc1OC` [Ex. 39, N-{2-Chloro-4-[(6,7-dimethoxy-4-quinazolinyl)oxy]phenyl}-N′-(5-methyl-1,3-thiazol-2-yl)urea], for which, on human KDR, the IC50 was less than 1 nM. Besides, in assay [1], the inhibition in vivo at 20 mg/kg turned out to be 64%.
On to `COc1cc2nccc(Oc3ccc(NC(=O)Nc4nnc(C(F)(F)F)s4)c(C)c3C)c2cc1OC` [Ex. 53, N-{4-[(6,7-Dimethoxy-4-quinolyl)oxy]-2,3-dimethylphenyl}-N′-[5-(trifluoromethyl)-1,3,4-thiadiazol-2-yl]urea], for which, at human KDR, the IC50 worked out at 1.2 nM. The inhibition in vivo at 20 mg/kg in assay [1] stood at 14.4%.
As for `COc1cc2nccc(Oc3ccc(NC(=O)Nc4ncc(C)s4)c(F)c3)c2cc1OC` [Ex. 21, N-{4-[(6,7-Dimethoxy-4-quinolyl)oxy]-2-fluorophenyl}-N′-(5-methyl-1.3-thiazol-2-yl)urea hydrochloride], the IC50 on human KDR turned out to be 0.4 nM. Moreover, the inhibition in vivo at 20 mg/kg in assay [1] is 66.6%.
Consider `COc1cc2nccc(Oc3ccc(NC(=O)Nc4nc(C)c(C)s4)c(Cl)c3)c2cc1OC` [Ex. 24, N-{2-Chloro-4-[(6,7-dimethoxy-4-quinolyl)oxy]phenyl}-N′-(4,5-dimethyl-1,3-thiazol-2-yl)urea], for which, on human KDR, the IC50 is 1 nM. Besides, the inhibition in vivo at 20 mg/kg in assay [1] is 39.8%.
With `COc1cc2nccc(Oc3ccc(NC(=O)Nc4cc(C)on4)c(F)c3)c2cc1OC` [Ex. 9, N-{4-[(6,7-Dimethoxy-4-quinolyl)oxy]-2-fluorophenyl}-N′-(5-methyl-3-isoxazolyl)urea], the IC50 on human KDR is 0.2 nM. Also, in assay [1], the inhibition in vivo at 20 mg/kg amounted to 63.5%.
Take `COc1cc2nccc(Oc3ccc(NC(=O)Nc4ccon4)cc3F)c2cc1OC` [Ex. 3, N-{4-[(6,7-Dimethoxy-4-quinolyl)oxy]-3-fluorophenyl}-N′-(3-isoxazolyl)urea]: the concentration for half-maximal inhibition (IC50) at human KDR was less than 1 nM. The inhibition in vivo at 20 mg/kg in assay [1] was determined as 39.5%.
For the compound `COc1cc2nccc(Oc3ccc(NC(=O)Nc4nc(C)cs4)c(Cl)c3)c2cc1OC` [Ex. 22, N-{2-Chloro-4-[(6,7-dimethoxy-4-quinolyl)oxy]phenyl}-N′-(4-methyl-1,3-thiazol-2-yl)urea], the IC50 on human KDR was less than 1 nM. Moreover, the inhibition in vivo at 20 mg/kg in assay [1] was found to be 43.8%.
`COc1cc2nccc(Oc3ccc(NC(=O)Nc4cc(C)no4)c(Cl)c3)c2cc1OC` [Ex. 5, N-{2-Cloro-4-[(6,7-dimethoxy-4-quinolyl)oxy]phenyl}-N′-(3-methyl-5-isoxazolyl)urea]: the IC50 on human KDR was less than 1 nM. Besides, in assay [1], the “TGIR (tumor growth inhibition rate)” value was 29.5%.
As for `COc1cc2nccc(Oc3ccc(NC(=O)Nc4nc(C)c(C)s4)cc3Cl)c2cc1OC` [Ex. 25, N-{3-Chloro-4-[(6,7-dimethoxy-4-quinolyl)oxy]phenyl}-N′-(4,5-dimethyl-1,3-thiazol-2-yl)urea], at human KDR, the half-maximal inhibitory concentration (IC50) was found to be 1.9 nM. Moreover, the inhibition in vivo at 20 mg/kg in assay [1] was determined as 18.8%.
Consider `COc1cc2nccc(Oc3ccc(NC(=O)Nc4nnc(C(F)(F)F)s4)c(F)c3)c2cc1OC` [Ex. 51, N-{4-[(6,7-Dimethoxy-4-quinolyl)oxy]-2-fluorophenyl}-N′-[5-(trifluoromethyl)-1,3,4-thiadiazol-2-yl]urea], for which the IC50 on human KDR was 3.7 nM. Further, the inhibition in vivo at 20 mg/kg in assay [1] was found to be 45.6%.
Turning to `COc1cc2nccc(Oc3ccc(NC(=O)Nc4cc(C)no4)c(F)c3)c2cc1OC` [Ex. 6, N-{4-[(6,7-Dimethoxy-4-quinolyl)oxy]-2-fluorophenyl}-N′-(3-methyl-5-isoxazolyl)urea], the IC50 on human KDR is less than 1 nM. Moreover, in assay [1], the inhibition in vivo at 20 mg/kg came out at 29.3%.
Taken in the same sequence, the figures for `COc1cc2nccc(Oc3ccc(NC(=O)Nc4nnc(C(F)(F)F)s4)cc3F)c2cc1OC` [Ex. 52, N-{4-[(6,7-Dimethoxy-4-quinolyl)oxy]-3-fluorophenyl}-N′-[5-(trifluoromethyl)-1,3,4-thiadiazol-2-yl]urea] were 13 nM and 20.7%.

The values above are taken from patent publication US7211587B2, “Quinoline derivatives and quinazoline derivatives having azolyl group” (Kirin Beer Kabushiki Kaisha, priority 2001, dated 2007).
